# Data: patent US7060721B1, “Imidazole compounds and medicinal use thereof” (Fujisawa Pharmaceutical Co., Ltd., priority 1998, dated 2006)
row,melting point,SMILES
1,227 to 228 °C,"Cc1nc(Cl)c(/C=C/C(=O)NS(=O)(=O)/C=C/c2ccccc2)n1Cc1ccc(-c2ccco2)cc1Cl [Example 2, (2E)-3-(4-chloro-1-(2-chloro-4-(2-furyl)benzyl)-2-methylimidazol-5-yl)-N-(((E)-2-phenylethenyl)sulfonyl)-2-propenamide]"
2,246 to 248 °C,"Cc1nc(Cl)c(/C=C/C(=O)NS(=O)(=O)/C=C/c2ccccc2)n1Cc1ccc(-c2cccs2)cc1Cl [Example 4, (2E)-3-(4-chloro-1-(2-chloro-4-(2-thienyl)benzyl)-2-methylimidazol-5-yl)-N-(((E)-2-phenylethenyl)sulfonyl)-2-propenamide]"
3,220 to 222 °C,"Cc1nc(Cl)c(/C=C/C(=O)NS(=O)(=O)/C=C/c2ccccc2)n1Cc1ccc(C#Cc2ccccc2)cc1Cl [Example 6, (2E)-3-(4-chloro-1-(2-chloro-4-(phenylethynyl)benzyl)-2-methylimidazol-5-yl)-N-(((E)-2-phenylethenyl)sulfonyl)-2-propenamide]"
4,240 to 241 °C,"Cc1nc(Cl)c(/C=C/C(=O)NS(=O)(=O)/C=C/c2ccccc2)n1Cc1ccc(-c2ccccc2)cc1Cl [Example 12, (E)-3-(4-chloro-1-(2-chloro-4-phenylbenzyl)-2-methylimidazol-5-yl)-N-(((E)-2-phenylethenyl)sulfonyl)-2-propenamide]"
5,234 to 235 °C,"Cc1nc(Cl)c(/C=C/C(=O)NS(=O)(=O)c2ccc(Br)s2)n1Cc1ccc(-c2ccccc2)cc1Cl [Example 14, (E)-N-((5-bromo-2-thienyl)sulfonyl)-3-(4-chloro-1-(2-chloro-4-phenylbenzyl)-2-methylimidazol-5-yl)-2-propenamide]"
6,199 to 201 °C,"CCCOc1ccc(Cn2c(C)nc(Cl)c2/C=C/C(=O)NS(=O)(=O)/C=C/c2ccccc2)c(Cl)c1 [Example 16, (E)-3-(4-chloro-1-(2-chloro-4-(1-propoxy)benzyl)-2-methylimidazol-5-yl)-N-(((E)-2-phenylethenyl)sulfonyl)-2-propenamide]"
7,177 to 178 °C,"CCCCCS(=O)(=O)NC(=O)/C=C/c1c(Cl)nc(C)n1Cc1ccc(OCC2CCCC2)cc1Cl [Example 19, (E)-3-(4-chloro-1-(2-chloro-4-((cyclopentyl)methyloxy)benzyl)-2-methylimidazol-5-yl)-N-(1-pentanesulfonyl)-2-propenamide]"
8,200 to 201 °C,"Cc1nc(Cl)c(/C=C/C(=O)NS(=O)(=O)/C=C/c2ccccc2)n1Cc1ccc(OCC2CCCC2)cc1Cl [Example 21, (2E)-3-(4-chloro-1-(2-chloro-4-((cyclopentyl)methyloxy)benzyl)-2-methylimidazol-5-yl)-N-(((E)-2-phenylethenyl)sulfonyl)-2-propenamide]"
9,225 to 227 °C,"Cc1nc(Cl)c(/C=C/C(=O)NS(=O)(=O)/C=C/c2ccccc2)n1Cc1ccc(OCc2ccccc2)cc1Cl [Example 25, (E)-3-(1-(4-benzyloxy-2-chlorobenzyl)-4-chloro-2-methylimidazol-5-yl)-N-(((E)-2-phenylethenyl)sulfonyl)-2-propenamide]"
10,261 to 263 °C,"Cc1nc(Cl)c(/C=C/C(=O)NS(=O)(=O)/C=C/c2ccccc2)n1Cc1ccc(C(F)(F)F)cc1Cl [Example 29, (E)-3-(4-chloro-1-(2-chloro-4-(trifluoromethyl)benzyl)-2-methylimidazol-5-yl)-N-(((E)-2-phenylethenyl)sulfonyl)-2-propenamide]"
11,199 to 201 °C,"Cc1nc(Cl)c(/C=C/C(=O)NS(=O)(=O)/C=C/c2ccccc2)n1Cc1ccc([N+](=O)[O-])cc1Cl [Example 33, (E)-3-(4-chloro-1-(2-chloro-4-nitrobenzyl)-2-methylimidazol-5-yl)-N-(((E)-2-phenylethenyl)sulfonyl)-2-propenamide]"
12,230 to 232 °C,"Cc1nc(Cl)c(/C=C/C(=O)NS(=O)(=O)/C=C/c2ccccc2)n1Cc1ccc(/C=C/c2ccccc2)cc1Cl [Example 35, (E)-3-(4-chloro-1-(2-chloro-4-((E)-2-phenylethenyl)benzyl)-2-methylimidazol-5-yl)-N-(((E)-2-phenylethenyl)sulfonyl)-2-propenamide]"
13,215 to 216 °C,"CCCCCS(=O)(=O)NC(=O)/C=C/c1c(Cl)nc(C)n1Cc1ccc(/C=C/c2ccccc2)cc1Cl [Example 41, (E)-3-(4-chloro-1-(2-chloro-4-((E)-2-phenylethenyl)benzyl)-2-methylimidazol-5-yl)-N-(1-pentanesulfonyl)-2-propenamide]"
14,226 to 228 °C,"CCC/C=C/S(=O)(=O)NC(=O)/C=C/c1c(Cl)nc(C)n1Cc1ccc(/C=C/c2ccccc2)cc1Cl [Example 42, (E)-3-(4-chloro-1-(2-chloro-4-((E)-2-phenylethenyl)benzyl)-2-methylimidazol-5-yl)-N-((E)-1-penten-1-ylsulfonyl)-2-propenamide]"
15,207 to 209 °C,"CCCCCS(=O)(=O)NC(=O)/C=C/c1c(Cl)nc(C)n1Cc1ccc(C#Cc2ccccc2)cc1Cl [Example 44, (E)-3-(4-chloro-1-(2-chloro-4-(phenylethynyl)benzyl)-2-methylimidazol-5-yl)-N-(1-pentanesulfonyl)-2-propenamide]"
16,207 to 210 °C,"CCC/C=C/S(=O)(=O)NC(=O)/C=C/c1c(Cl)nc(C)n1Cc1ccc(C#Cc2ccccc2)cc1Cl [Example 45, (E)-3-(4-chloro-1-(2-chloro-4-(phenylethynyl)benzyl)-2-methylimidazol-5-yl)-N-((E)-1-penten-1-ylsulfonyl)-2-propenamide]"
17,165 to 167 °C,"CCCCS(=O)(=O)NC(=O)/C=C/c1c(Cl)nc(CC)n1Cc1ccc(C#Cc2ccccc2)cc1Cl [Example 56, (E)-N-(1-butanesulfonyl)-3-(4-chloro-1-(2-chloro-4-(phenylethynyl)benzyl)-2-ethylimidazol-5-yl)-2-propenamide]"

# The next lines start with the compound.
row,SMILES,melting point
1,"Cc1nc(Cl)c(/C=C/C(=O)NS(=O)(=O)/C=C/c2ccccc2)n1Cc1ccc(Br)cc1Cl [Example 8, (E)-3-(1-(4-bromo-2-chlorobenzyl)-4-chloro-2-methylimidazol-5-yl)-N-(((E)-2-phenylethenyl)sulfonyl)-2-propenamide]",250 to 251 °C
2,"CCCCCS(=O)(=O)NC(=O)/C=C/c1c(Cl)nc(C)n1Cc1ccc(-c2ccccc2)cc1Cl [Example 9, (E)-3-[4-chloro-1-(2-chloro-4-phenylbenzyl)-2-methylimidazol-5-yl]-N-(1-pentanesulfonyl)-2-propenamide]",203 to 204 °C
3,"Cc1nc(Cl)c(/C=C/C(=O)NS(=O)(=O)c2ccccc2)n1Cc1ccc(-c2ccccc2)cc1Cl [Example 10, (E)-N-benzenesulfonyl-3-[4-chloro-1-(2-chloro-4-phenylbenzyl)-2-methylimidazol-5-yl]-2-propenamide]",245 to 247 °C
4,"Cc1nc(Cl)c(/C=C/C(=O)NS(=O)(=O)c2ccc(Cl)s2)n1Cc1ccc(-c2ccccc2)cc1Cl [Example 13, (E)-3-(4-chloro-1-(2-chloro-4-phenylbenzyl)-2-methylimidazol-5-yl)-N-((5-chloro-2-thienyl)sulfonyl)-2-propenamide]",229 to 233 °C
5,"CCCCCOc1ccc(Cn2c(C)nc(Cl)c2/C=C/C(=O)NS(=O)(=O)/C=C/c2ccccc2)c(Cl)c1 [Example 18, (E)-3-(4-chloro-1-(2-chloro-4-(1-pentyloxy)benzyl)-2-methylimidazol-5-yl)-N-(((E)-2-phenylethenyl)sulfonyl)-2-propenamide]",196 to 199 °C
6,"Cc1nc(Cl)c(/C=C/C(=O)NS(=O)(=O)/C=C/c2ccccc2)n1Cc1ccc(OCC2CCCCC2)cc1Cl [Example 23, (2E)-3-(4-chloro-1-(2-chloro-4-((cyclohexyl)methyloxy)benzyl)-2-methylimidazol-5-yl)-N-(((E)-2-phenylethenyl)sulfonyl)-2-propenamide]",210 to 212 °C
7,"CSc1ccc(Cn2c(C)nc(Cl)c2/C=C/C(=O)NS(=O)(=O)/C=C/c2ccccc2)c(Cl)c1 [Example 27, (E)-3-(4-chloro-1-(2-chloro-4-(methylthio)benzyl)-2-methylimidazol-5-yl)-N-(((E)-2-phenylethenyl)sulfonyl)-2-propenamide]",237 to 238 °C
8,"Cc1nc(Cl)c(/C=C/C(=O)NS(=O)(=O)/C=C/c2ccccc2)n1Cc1ccc(COc2ccccc2)cc1Cl [Example 31, (E)-3-(4-chloro-1-(2-chloro-4-(phenoxymethyl)benzyl)-2-methylimidazol-5-yl)-N-(((E)-2-phenylethenyl)sulfonyl)-2-propenamide]",202 to 203 °C
9,"Cc1nc(Cl)c(/C=C/C(=O)NS(=O)(=O)/C=C/c2ccccc2)n1Cc1ncc(C(F)(F)F)cc1Cl [Example 47, (E)-3-(4-chloro-1-((3-chloro-5-(trifluoromethyl)pyridin-2-yl)methyl)-2-methylimidazol-5-yl)-N-((E)-2-phenylethenylsulfonyl)-2-propenamide]",249 to 252 °C
10,"CCCCCS(=O)(=O)NC(=O)/C=C/c1c(Cl)nc(C)n1Cc1ccc(NC(=O)OC(C)(C)C)cc1Cl [Example 49, (E)-3-(1-(4-(tert-butoxycarbonylamino)-2-chlorobenzyl)-4-chloro-2-methylimidazol-5-yl)-N-(1-pentanesulfonyl)-2-propenamide]",202 to 204 °C
11,"CCC/C=C/S(=O)(=O)NC(=O)/C=C/c1c(Cl)nc(C)n1Cc1ccc(NC(=O)OC(C)(C)C)cc1Cl [Example 50, (E)-3-(1-(4-(tert-butoxycarbonylamino)-2-chlorobenzyl)-4-chloro-2-methylimidazol-5-yl)-N-((E)-1-penten-1-ylsulfonyl)-2-propenamide]",209 to 210 °C
12,"CCc1nc(Cl)c(/C=C/C(=O)NS(=O)(=O)/C=C/c2ccccc2)n1Cc1ccc(Br)cc1Cl [Example 53, (E)-3-(1-(4-bromo-2-chlorobenzyl)-4-chloro-2-ethylimidazol-5-yl)-N-((E)-2-phenylethenesulfonyl)-2-propenamide]",209 to 210 °C
13,"CCc1nc(Cl)c(/C=C/C(=O)NS(=O)(=O)/C=C/c2ccccc2)n1Cc1ccc(C#Cc2ccccc2)cc1Cl [Example 54, (E)-3-(4-chloro-1-(2-chloro-4-(phenylethynyl)benzyl)-2-ethylimidazol-5-yl)-N-((E)-2-phenylethenesulfonyl)-2-propenamide]",233 to 234 °C
